IC50 and Dmax data for 12 compounds are collected here from patent US20240368159A1, “HPK1 DEGRADERS, COMPOSITIONS COMPRISING THE HPK1 DEGRADER, AND METHODS OF USING THE SAME” (BIOFRONT LTD, priority 2021, published 2024).

In test [1] the target is T1, HPK1 protein (Homo sapiens, UniProt Q92918).
T1 construct: purchased Signal Chem M23-11G-10
T1 sequence (Q92918 1-346 limits assumed): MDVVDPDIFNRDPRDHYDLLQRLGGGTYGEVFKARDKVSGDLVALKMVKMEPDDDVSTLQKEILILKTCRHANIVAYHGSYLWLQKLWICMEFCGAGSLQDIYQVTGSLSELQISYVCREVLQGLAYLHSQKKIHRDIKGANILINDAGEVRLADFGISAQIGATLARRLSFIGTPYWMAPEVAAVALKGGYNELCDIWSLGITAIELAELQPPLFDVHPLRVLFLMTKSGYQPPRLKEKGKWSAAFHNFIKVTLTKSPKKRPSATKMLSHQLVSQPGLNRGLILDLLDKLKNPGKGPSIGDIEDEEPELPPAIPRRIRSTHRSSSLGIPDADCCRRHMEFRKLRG
Briefly: HPK1 enzyme inhibition assay (ADP-Glo). The test is classed as biochemical. Conditions: MBP substrate, ATP, ADP-Glo readout. Put shortly:
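Recombinant human HPK1 preincubated with compound 60 min at 25 °C, then reaction with MBP (0.2 ug/ul, 2× stock) and ATP (20 μM, 2× stock) 60 min at 25 °C. ADP formed detected by ADP-Glo after ATP depletion and conversion to ATP; IC50 calculated from signal.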
On the technique in general: ADP-Glo first removes unused ATP, then detects ADP through luciferase.

For test [2], the target named is T2, HPK1 protein (Mus musculus, UniProt P70218).
T2 construct: the CD3+ T cell population was isolated from spleenocytes of mice; endogenous in cells; host or cells: primary mouse splenic CD3+ (pan) T cells
T2 sequence (P70218 1-827): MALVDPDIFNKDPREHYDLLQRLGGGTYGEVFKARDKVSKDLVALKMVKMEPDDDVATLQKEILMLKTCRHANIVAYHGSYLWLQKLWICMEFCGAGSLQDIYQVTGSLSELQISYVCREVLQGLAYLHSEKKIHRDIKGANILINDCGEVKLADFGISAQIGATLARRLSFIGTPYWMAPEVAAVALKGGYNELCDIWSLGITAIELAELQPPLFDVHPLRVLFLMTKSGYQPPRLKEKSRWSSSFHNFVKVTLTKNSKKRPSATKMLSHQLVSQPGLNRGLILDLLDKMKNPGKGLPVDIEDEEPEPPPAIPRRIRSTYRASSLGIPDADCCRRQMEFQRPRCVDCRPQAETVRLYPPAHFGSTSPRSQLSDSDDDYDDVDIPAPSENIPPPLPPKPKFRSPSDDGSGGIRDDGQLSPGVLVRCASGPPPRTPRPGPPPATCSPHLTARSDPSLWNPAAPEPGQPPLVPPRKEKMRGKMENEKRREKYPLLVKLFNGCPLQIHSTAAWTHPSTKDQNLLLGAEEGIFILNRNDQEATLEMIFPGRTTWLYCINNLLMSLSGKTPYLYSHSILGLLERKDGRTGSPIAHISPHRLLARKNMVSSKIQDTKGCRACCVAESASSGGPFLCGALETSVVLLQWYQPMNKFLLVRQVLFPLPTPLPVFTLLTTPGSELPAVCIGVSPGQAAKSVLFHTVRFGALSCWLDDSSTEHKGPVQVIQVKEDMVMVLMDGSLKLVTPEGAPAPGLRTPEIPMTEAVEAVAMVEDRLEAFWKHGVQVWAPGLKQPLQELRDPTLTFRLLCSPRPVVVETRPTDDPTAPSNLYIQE
Description: HPK1 protein degradation in mouse pan T cell (western blot). The conditions noted are these: 18 h incubation. The test is classed as cell-based. The essentials:
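CD3+ pan T cells were isolated from mouse splenocytes and incubated 18 h with a range of compound concentrations. Lysates were normalised by BCA and run on SDS-PAGE. HPK1 was detected by western blot with an anti-human HPK1 polyclonal antibody, with β-actin as loading control.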
(In general: Immunoblotting shows a protein as a band on a membrane.)

The subject of another test is HPK1 p-SLP-76. Briefly: HPK1 p-SLP-76 inhibition assay in human PBMC (HTRF). It is filed as cell-based. The conditions noted are these: 6 h compound, anti-CD3 stimulation 20 min. The protocol: Human PBMC were purchased from OriCells (FPB004F-C). Before compound treatment, PBMC were starved in PRMI-1640 medium supplemented with 0.5% FBS overnight. The cell density was adjusted to 1*10^7 cells/mL in assay medium (RPMI-1640 no phenol red with 0.5% FBS) and 16 μL cell suspension was transferred per well to a 384-well plate (Corning #3765). 6× solution of test compound was prepared in assay medium and 4 μL was added per well to the 384-well plate. The plate was then incubated at 37° C., 5% CO2 for 6 h. PBMC in 384-well plate were stimulated with anti-CD3 (BD Biosciences #555329, final conc. is 10 ug/mL) for 20 min at 37° C., 5% CO2 by adding 4 μL 6× antibody solution per well. Phospho-SLP76 HTRF kit was purchased from Cisbio (63ADK076PEH). 8 μL 4× Lysis Buffer was added to 384-well plate after anti-CD3 stimulation. The plate was centrifuged at 1,000 rpm for 1 min, shaken at 250 rpm for 60 min and centrifuged again at 1,000 rpm for 5 min. Afterwards the cell lysates were transferred to the assay plate (Greiner #784075) with 16 μL per well. 4 μL detection antibody mix per well prepared in Detection Buffer was added to the assay plate, followed by centrifugation at 1,000 rpm for 1 min and incubation at 25° C. overnight.
A general note: TR-FRET usually uses a lanthanide donor and a delayed reading to cut background.

Test [3] concerns the target T3, HPK1 protein (Homo sapiens, UniProt Q92918).
T3 construct: Frozen human PBMC were purchased from Shanghai OribioTech; host or cells: human PBMC
Briefly: HPK1 protein degradation in human PBMC (western blot). It is filed as cell-based. The conditions noted are these: 18 h incubation. The protocol: HPK1 protein degradation in human PBMC: Frozen human PBMC were purchased from Shanghai OribioTech and recovered with culture medium (RMPI1640) prior to use. The cells were then incubated with a variety of concentrations of compound. After incubation for 18 h, the cells were collected and lysed. The protein concentration was determined by BCA protein assay kit from Thermo (23227). The HPK1 protein level was determined by western blots, using anti-human HPK1 polyclonal antibody from CST (4472S). Proteins were loaded into each well of the pre-casting gels and subjected to electrophoretic separation by SDS-PAGE. The protein resolved by SDS-PAGE were transferred to PVDF, blocked by 5% skim milk, and probed with anti-human HPK1 antibody or β-actin antibody from CST (3700S), using standard western blotting procedure.
T3 sequence (Q92918 whole entry): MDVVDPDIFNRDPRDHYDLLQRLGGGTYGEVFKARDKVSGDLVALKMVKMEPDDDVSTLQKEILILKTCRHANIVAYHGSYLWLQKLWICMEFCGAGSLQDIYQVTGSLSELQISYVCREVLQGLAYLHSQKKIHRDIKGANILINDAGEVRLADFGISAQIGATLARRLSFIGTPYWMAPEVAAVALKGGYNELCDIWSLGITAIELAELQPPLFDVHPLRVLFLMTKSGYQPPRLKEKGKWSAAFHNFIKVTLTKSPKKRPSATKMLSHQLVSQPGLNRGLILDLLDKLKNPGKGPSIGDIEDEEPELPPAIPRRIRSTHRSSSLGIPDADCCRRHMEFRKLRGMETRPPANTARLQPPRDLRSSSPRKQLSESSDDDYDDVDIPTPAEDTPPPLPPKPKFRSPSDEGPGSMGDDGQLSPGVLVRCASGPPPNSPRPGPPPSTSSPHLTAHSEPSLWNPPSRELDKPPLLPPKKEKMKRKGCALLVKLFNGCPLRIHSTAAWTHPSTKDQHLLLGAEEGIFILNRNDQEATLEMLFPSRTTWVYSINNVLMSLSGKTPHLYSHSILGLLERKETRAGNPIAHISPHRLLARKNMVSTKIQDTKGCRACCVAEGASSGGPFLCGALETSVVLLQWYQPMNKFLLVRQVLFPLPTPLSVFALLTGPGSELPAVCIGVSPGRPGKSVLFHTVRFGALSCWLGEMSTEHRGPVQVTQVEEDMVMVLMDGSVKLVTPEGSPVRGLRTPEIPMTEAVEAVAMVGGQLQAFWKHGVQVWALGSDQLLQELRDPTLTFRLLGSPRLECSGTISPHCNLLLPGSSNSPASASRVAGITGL

Take `O=C1CCC(Nc2ccc(C3CCN(CCCN4CCN(c5cccc(-c6cnc7[nH]cc(C8CC8)c7c6Cl)c5)C(=O)C4)CC3)cc2)C(=O)N1` (centres unmarked) [Example 78, 3-((4-(1-(3-(4-(3-(4-chloro-3-cyclopropyl-1H-pyrrolo[2,3-b]pyridin-5-yl)phenyl)-3-oxopiperazin-1-yl)propyl)piperidin-4-yl)phenyl)amino)piperidine-2,6-dione]: the IC50 was not above 10 nM against HPK1 protein [1] and 300 to 3000 nM in the test on HPK1 p-SLP-76. The Dmax was determined as 88% at HPK1 protein [2] and 90% at HPK1 protein [3].
On to `O=C1CCN(c2cccc3cc(N4CCC(OCCN5CCN(c6cccc(-c7cnc8[nH]cc(C9CC9)c8c7Cl)n6)C(=O)C5)CC4)ccc23)C(=O)N1` [Example 72], for which the concentration for half-maximal inhibition (IC50) was in the range of 10 to 100 nM against HPK1 protein [1] and 300 to 3000 nM with HPK1 p-SLP-76. This compound also displayed a Dmax at HPK1 protein [3] of 30%.
Take `CCc1c[nH]c2ncc(-c3cccc(N4CCN(C(=O)COC5CCN(c6ccc7c(c6)C(=O)N(C6CCC(=O)NC6=O)C7=O)CC5)CC4=O)c3)c(Cl)c12` (centres unmarked) [Example 16, 5-(4-(2-(4-(3-(4-chloro-3-ethyl-1H-pyrrolo[2,3-b]pyridin-5-yl)phenyl)-3-oxopiperazin-1-yl)-2-oxoethoxy)piperidin-1-yl)-2-(2,6-dioxopiperidin-3-yl)isoindoline-1,3-dione]: the IC50 was not above 10 nM on HPK1 protein [1] and not above 300 nM in the test with HPK1 p-SLP-76. Moreover, the Dmax was determined as 80% on HPK1 protein [2] and 96% at HPK1 protein [3].
Take `CCc1c[nH]c2ncc(-c3cccc(N4CCN(CCCN5CCN(c6cc7c(cc6F)C(=O)N(C6CCC(=O)NC6=O)C7=O)CC5)CC4=O)c3)c(Cl)c12` (centres unmarked) [Example 25]: the IC50 on HPK1 protein [1] is 10 to 100 nM; in the test on HPK1 p-SLP-76, 300 to 3000 nM. Further, the Dmax on HPK1 protein [2] and on HPK1 protein [3] was 96% each time.
`CCc1c[nH]c2ncc(-c3cccc(N4CCN(CCCOC5CCN(c6ccc7c(c6)C(=O)N(C6CCC(=O)NC6=O)C7=O)CC5)CC4=O)c3)c(Cl)c12` (centres unmarked) [Example 35, 5-(4-(3-(4-(3-(4-chloro-3-ethyl-1H-pyrrolo[2,3-b]pyridin-5-yl)phenyl)-3-oxopiperazin-1-yl)propoxy)piperidin-1-yl)-2-(2,6-dioxopiperidin-3-yl)isoindoline-1,3-dione]: the IC50 was in the range of 10 to 100 nM against HPK1 protein [1] and 300 to 3000 nM with HPK1 p-SLP-76. For the same compound, the results for the Dmax at HPK1 protein [2] and on HPK1 protein [3] were 95% and 90%, respectively.
Take `CCc1c[nH]c2ncc(-c3cccc(N4CCN(CCN5CCN(c6ccc7c(c6)C(=O)N(C6CCC(=O)NC6=O)C7=O)CC5)CC4=O)c3)c(Cl)c12` (centres unmarked) [Example 28, 5-(4-(2-(4-(3-(4-chloro-3-ethyl-1H-pyrrolo[2,3-b]pyridin-5-yl)phenyl)-3-oxopiperazin-1-yl)ethyl)piperazin-1-yl)-2-(2,6-dioxopiperidin-3-yl)isoindoline-1,3-dione]: the IC50 on HPK1 protein [1] is 10 to 100 nM; with HPK1 p-SLP-76 it was 300 to 3000 nM. The compound further came in with a Dmax at HPK1 protein [3] of 80%.
`O=C1CCC(N2Cc3cc(C4CCN(CCCN5CCN(c6cccc(-c7cnc8[nH]cc(C9CC9)c8c7Cl)c6)C(=O)C5)CC4)ccc3C2=O)C(=O)N1` (centres unmarked) [Example 54, 3-(5-(1-(3-(4-(3-(4-chloro-3-cyclopropyl-1H-pyrrolo[2,3-b]pyridin-5-yl)phenyl)-3-oxopiperazin-1-yl)propyl)piperidin-4-yl)-1-oxoisoindolin-2-yl)piperidine-2,6-dione]: the half-maximal inhibitory concentration (IC50) was not above 10 nM against HPK1 protein [1] and not above 300 nM in the test with HPK1 p-SLP-76. Besides, the maximal degradation (Dmax) was found to be 95% on HPK1 protein [2] and 83% on HPK1 protein [3].
On the same counts, the results for `O=C1CCC(N2Cc3cc(C4=CCN(CCCN5CCN(c6cccc(-c7cnc8[nH]cc(C9CC9)c8c7Cl)c6)C(=O)C5)CC4)ccc3C2=O)C(=O)N1` (centres unmarked) [Example 56, 3-(5-(1-(3-(4-(3-(4-chloro-3-cyclopropyl-1H-pyrrolo[2,3-b]pyridin-5-yl)phenyl)-3-oxopiperazin-1-yl)propyl)-1,2,3,6-tetrahydropyridin-4-yl)-1-oxoisoindolin-2-yl)piperidine-2,6-dione] are not above 10 nM, 300 to 3000 nM, 95% and 98%.
On to `O=C1CCN(c2cccc3cc(N4CCN(CCCN5CCN(c6cccc(-c7cnc8[nH]cc(C9CC9)c8c7Cl)n6)C(=O)C5)CC4)ccc23)C(=O)N1` [Example 69, 1-(6-(4-(3-(4-(6-(4-chloro-3-cyclopropyl-1H-pyrrolo[2,3-b]pyridin-5-yl)pyridin-2-yl)-3-oxopiperazin-1-yl)propyl)piperazin-1-yl)naphthalen-1-yl)dihydropyrimidine-2,4 (1H,3H)-dione], for which the half-inhibitory concentration (IC50) was not above 10 nM against HPK1 protein [1] and 300 to 3000 nM in the test with HPK1 p-SLP-76. The greatest degradation seen (Dmax) at HPK1 protein [3] worked out at 74%.
For the compound `O=C1CCC(N2C(=O)c3cc(F)c(N4CCN(CCCN5CCN(c6cccc(-c7cnc8[nH]cc(C9CC9)c8c7Cl)c6)C(=O)C5)CC4)cc3C2=O)C(=O)N1` (centres unmarked) [Example 43], the figures for the IC50 on HPK1 protein [1] and with HPK1 p-SLP-76 were 100 to 1000 nM and 300 to 3000 nM, respectively. Moreover, the Dmax turned out to be 95% on HPK1 protein [2] and 94% at HPK1 protein [3].
In the case of `CCc1c[nH]c2ncc(-c3cccc(N4CCN(CCC(=O)N5CCN(c6cc7c(cc6F)C(=O)N(C6CCC(=O)NC6=O)C7=O)CC5)CC4=O)c3)c(Cl)c12` (centres unmarked) [Example 30, 5-(4-(3-(4-(3-(4-chloro-3-ethyl-1H-pyrrolo[2,3-b]pyridin-5-yl)phenyl)-3-oxopiperazin-1-yl)propanoyl)piperazin-1-yl)-2-(2,6-dioxopiperidin-3-yl)-6-fluoroisoindoline-1,3-dione], at HPK1 protein [1], the IC50 was in the range of 10 to 100 nM. For the same compound, the Dmax stood at 80% on HPK1 protein [2] and 61% at HPK1 protein [3].
In the case of `CCc1c[nH]c2ncc(-c3cccc(N4CCN(S(=O)(=O)CCCN5CCN(c6ccc7c(c6)C(=O)N(C6CCC(=O)NC6=O)C7=O)CC5)CC4=O)c3)c(Cl)c12` (centres unmarked) [Example 99, 5-(4-(3-((4-(3-(4-chloro-3-ethyl-1H-pyrrolo[2,3-b]pyridin-5-yl)phenyl)-3-oxopiperazin-1-yl)sulfonyl)propyl)piperazin-1-yl)-2-(2,6-dioxopiperidin-3-yl)isoindoline-1,3-dione], the IC50 against HPK1 protein [1] was 10 to 100 nM; with HPK1 p-SLP-76 it was not above 300 nM. Further, the Dmax at HPK1 protein [2] amounted to 90%; at HPK1 protein [3] it was 99%.

Broadly, the IC50 is the midpoint of a concentration-inhibition curve. High values mean lower potency, low ones higher potency. By Dmax is commonly meant the greatest extent of degradation seen. A low value points to shallow degradation.
